Laboratory results taken from US8853226B2, “Tricyclic compounds as modulators of TNF-α synthesis and as PDE4 inhibitors” (High Point Pharmaceuticals, LLC, priority 2008, dated 2014).
Counter-ions that a name gives are not always drawn.

Experiments:
PDE4B2 = PDE4B2 (Homo sapiens (Human), UniProt Q07343); assay: PDE4 Inhibition Assay (TR-FRET IMAP, FAM-cAMP substrate); format: biochemical; settings: 100 nM cAMP, 30° C., 90 minutes
Description: (§1) A TR-FRET-based phosphodiesterase assay kit from “Molecular Devices” was used to test whether these compounds were indeed direct inhibitors of the PDE4 enzyme. Using Roflumilast as a positive control, compounds of the present invention were tested against fluorescein-labeled cAMP substrate. The principle of the assay is based on the binding of a nucleotide monophosphate generated upon cAMP conversion to 5′ AMP by PDE to an “IMAP binding reagent”, which in turn is also ligated to a separate complex carrying terbium (Tb)-donor molecule. Proximity of the fluoreceinated 5′AMP to the Tb donor generates Fluorescence Resonance Energy Transfer. A PDE inhibitor will reduce the conversion of cAMP to 5′AMP, thus reducing monophosphate that can bind to the IMAP binding reagent and reduce the resulting FRET signal.
(§2) The assay buffer was prepared by diluting 5× supplied Tween-based buffer in 1:5 in water to make 1× buffer. Add desired additive to buffer (DTT or MnCl2). In a separate 96-well polypropylene plate, compound dilutions were prepared in assay buffer. Separate microcentrifuge tubes were prepared of PDE4B and PDE4D according to assay template—in assay buffer. The tubes were kept on ice. The enzyme concentration shown on the template were diluted by 1:4. FAM-cAMP substrate solution was prepared according to assay template. 5 μl compound was transferred from polypropylene plate into black 384-well plate. This plate was centrifuged briefly to make sure all 5 μl is on the bottom. Up to 80 μl of prepared PDE4B enzyme solution was transferred into alternate wells on row ‘N’ of 384-well plate starting from cell N1. Up to 80 μl of prepared PDE4D enzyme solution was transferred into alternate wells on row ‘O’ of 384-well plate, starting from cell O2. cAMP substrate solution was transferred into bottom row of separate 96-well plate. 5 μl of enzyme solution from the “reservoir” row (N or O) was transferred to each of the wells containing compounds, per layout map. Next, 10 μl of cAMP substrate was transferred to these wells. The order of substrate-first or enzyme-first can be switched depending on what is optimal. The final cAMP concentration was 100 nM in the reaction. 20 μl of assay buffer was pipetted into 4 separate wells—these are the blanks. The plate was sealed with an aluminum strip and incubated at 30° C. for 90 minutes. A TR-FRET solution was prepared. […]. 25 μl ( 1/800 of 20 ml) of binding beads was added to this and mix by inverting. 60 μl of this mixture was pipetted into 2 of the wells containing the “blank” assay buffer. Next, 49.7 μl ( 1/400 of remaining volume) of Tb donor solution was added to the remaining TR-FRET solution and mixed by inverting. 60 μl of this solution was pipetted into remaining 2 “blank” assay buffer-containing wells. The TR-FRET solution was poured into a pipette boat and a multichannel pipette was used to drop 60 μl of solution into all assay wells. The wells were covered with a foil strip and incubated for at least 3 hours or overnight protected from light (e.g. in a drawer) at room temperature. The plate was read on the Envision Reader: Emission 1: 520/Emission 2: 486/Exc: 340. Mirror: Umbelliferone (UV).

PDE4D = PDE4D (Homo sapiens (Human), UniProt Q08499); assay: as above; format: biochemical; settings: 100 nM cAMP, 30° C., 90 minutes
Chain of PDE4D (Q08499 whole entry, species assumed): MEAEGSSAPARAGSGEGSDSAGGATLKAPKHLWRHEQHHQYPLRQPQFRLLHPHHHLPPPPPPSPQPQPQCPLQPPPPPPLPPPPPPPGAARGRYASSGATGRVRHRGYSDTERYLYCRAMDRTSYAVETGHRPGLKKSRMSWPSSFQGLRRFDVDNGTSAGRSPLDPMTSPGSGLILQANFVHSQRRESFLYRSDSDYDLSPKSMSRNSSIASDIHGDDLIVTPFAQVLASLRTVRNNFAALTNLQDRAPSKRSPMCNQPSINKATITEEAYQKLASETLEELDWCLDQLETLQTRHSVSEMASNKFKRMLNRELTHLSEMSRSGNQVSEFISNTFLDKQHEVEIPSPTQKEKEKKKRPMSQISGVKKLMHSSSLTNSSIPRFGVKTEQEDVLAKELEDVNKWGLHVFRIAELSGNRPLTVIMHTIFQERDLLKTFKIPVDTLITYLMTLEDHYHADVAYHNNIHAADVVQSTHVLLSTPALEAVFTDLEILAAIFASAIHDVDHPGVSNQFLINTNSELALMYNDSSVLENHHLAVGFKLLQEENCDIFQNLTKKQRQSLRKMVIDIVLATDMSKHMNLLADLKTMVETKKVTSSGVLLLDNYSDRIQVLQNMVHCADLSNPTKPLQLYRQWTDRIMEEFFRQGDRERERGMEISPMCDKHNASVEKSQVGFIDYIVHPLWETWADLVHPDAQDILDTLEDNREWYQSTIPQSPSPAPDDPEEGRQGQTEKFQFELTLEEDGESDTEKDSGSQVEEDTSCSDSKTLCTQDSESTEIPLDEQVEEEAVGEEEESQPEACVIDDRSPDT
Description: as §1, §2

Chain of PDE4B2 (Q07343 other isoform, or with tags, fused parts or gaps, species assumed): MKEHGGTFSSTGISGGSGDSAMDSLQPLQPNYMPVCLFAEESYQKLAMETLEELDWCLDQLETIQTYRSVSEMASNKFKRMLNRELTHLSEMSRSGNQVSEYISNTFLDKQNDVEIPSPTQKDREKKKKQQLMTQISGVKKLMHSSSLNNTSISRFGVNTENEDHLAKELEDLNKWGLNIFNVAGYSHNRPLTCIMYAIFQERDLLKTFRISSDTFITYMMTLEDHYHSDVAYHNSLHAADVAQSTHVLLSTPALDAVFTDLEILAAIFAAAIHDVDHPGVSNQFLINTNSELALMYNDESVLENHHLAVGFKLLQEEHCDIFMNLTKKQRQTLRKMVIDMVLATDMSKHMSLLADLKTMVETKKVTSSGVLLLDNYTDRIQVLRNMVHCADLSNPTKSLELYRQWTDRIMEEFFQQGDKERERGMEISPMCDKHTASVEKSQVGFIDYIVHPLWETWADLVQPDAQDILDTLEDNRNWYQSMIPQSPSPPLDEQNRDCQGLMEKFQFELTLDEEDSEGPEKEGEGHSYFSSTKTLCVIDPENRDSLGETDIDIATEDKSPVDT

| Compound | IC50 (PDE4B2) [nM] | IC50 (PDE4D) [nM] |
| --- | --- | --- |
| CCn1c(=O)c2cnc3c(Cl)cccc3c2n(C2CCCC2)c1=O [Example 30, 7-Chloro-1-cyclopentyl-3-ethyl-1H-pyrimido[5,4-c]quinoline-2,4-dione] | 17000 | 25000 |
| CCCc1cccc2c1ncc1c(=O)n(CC)c(=O)n(C3CCCC3)c12 [Example 32, 1-Cyclopentyl-3-ethyl-7-propyl-1H-pyrimido[5,4-c]quinoline-2,4-dione] | 25000 | 25000 |
| CCn1c(=O)c2cnc3c(C(C)C)cccc3c2n(C2CCCC2)c1=O [Example 33, 1-Cyclopentyl-3-ethyl-7-isopropyl-1H-pyrimido[5,4-c]quinoline-2,4-dione] | 12400 | 25000 |
| COc1cccc2c1ncc1c(=O)n(-c3cc(C)cs3)c(=O)n(C3CCCC3)c12 [Example 51, 1-Cyclopentyl-7-methoxy-3-(4-methyl-thiophen-2-yl)-1H-pyrimido[5,4-c]quinoline-2,4-dione] | 126 | 616 |
| COc1cccc2c1ncc1c(=O)n(-c3cccc(C)c3)c(=O)n(C3CCCC3)c12 [Example 54, 1-Cyclopentyl-7-methoxy-3-m-tolyl-1H-pyrimido[5,4-c]quinoline-2,4-dione] | 78 | 338 |
| COc1cccc2c1ncc1c(=O)n(-c3ccc4c(c3)OCO4)c(=O)n(C3CCCC3)c12 [Example 84, 3-Benzo[1,3]dioxol-5-yl-1-cyclopentyl-7-methoxy-1H-pyrimido[5,4-c]quinoline-2,4-dione] | 513 | 827 |
| COc1cccc2c1ncc1c(=O)n(-c3cccc(Cl)c3)c(=O)n(C3CCN(S(C)(=O)=O)CC3)c12 [Example 92, 3-(3-Chloro-phenyl)-1-(1-methanesulfonyl-piperidin-4-yl)-7-methoxy-1H-pyrimido[5,4-c]quinoline-2,4-dione] | 68 | 151 |
| COc1cccc2c1ncc1c(=O)n(-c3cccc(Cl)c3)c(=O)n([C@H]3CC[C@H](C(=O)O)CC3)c12 [Example 103, Trans-4-[3-(3-Chloro-phenyl)-7-methoxy-2,4-dioxo-3,4-dihydro-2H-pyrimido[5,4-c]quinolin-1-yl]-cyclohexanecarboxylic acid.hydrochloride] | 17 | 55 |
| COc1cccc2c1ncc1c(=O)n(-c3cccc(Cl)c3)c(=O)n([C@@H]3CCN(S(C)(=O)=O)C3)c12 [Example 115, 3-(3-Chloro-phenyl)-1-((R)-1-methanesulfonyl-pyrrolidin-3-yl)-7-methoxy-1H-pyrimido[5,4-c]quinoline-2,4-dione] | 49 | 163 |
| COc1cccc2c1ncc1c(=O)n(-c3cccc(Cl)c3)c(=O)n([C@H]3CCN(S(C)(=O)=O)C3)c12 [Example 118, 3-(3-Chloro-phenyl)-1-((S)-1-methanesulfonyl-pyrrolidin-3-yl)-7-methoxy-1H-pyrimido[5,4-c]quinoline-2,4-dione] | 80 | 206 |
| CCS(=O)(=O)N1CCC(n2c(=O)n(-c3cccc(Cl)c3)c(=O)c3cnc4c(OC)cccc4c32)CC1 [Example 121, 3-(3-Chloro-phenyl)-1-(1-ethanesulfonyl-piperidin-4-yl)-7-methoxy-1H-pyrimido[5,4-c]quinoline-2,4-dione] | 26 | 59 |
| COc1cccc2c1ncc1c(=O)n(-c3cccc(Cl)c3)c(=O)n([C@H]3CC[C@H](NS(C)(=O)=O)CC3)c12 [Example 127, N-{4-[(S)-3-(3-Chloro-phenyl)-7-methoxy-2,4-dioxo-3,4-dihydro-2H-pyrimido[5,4-c]quinolin-1-yl]-trans-cyclohexyl}-methanesulfonamide] | 25 | 73 |
